Values of other authors, collected in patent publication US20140220080A1, “IgA SECRETION PROMOTER” (MATSUTANI CHEMICAL INDUSTRY CO., LTD., priority 2013, published 2014).

System: IgA
Conditions: Patent Literature 1, 2; Non-Patent Literature 1-3

For `OC[C@H]1O[C@@H](O[C@H]2[C@H](O)[C@@H](O)[C@@H](O[C@]3(CO)O[C@H](CO)[C@@H](O)[C@@H]3O)O[C@@H]2CO)[C@H](O)[C@@H](O)[C@H]1O` [lactosucrose], the “action of promoting IgA secretion” value is listed as “have an action of promoting IgA secretion”.
